Data: the supplement of paper PMC4858399
Counter-ions that a name gives are not always drawn.

Columns and labels:
Details in all cases: exposure time 48 h
[1] = tested on: Caenorhabditis elegans N2; assay: mean nematode size ln(EXT) after 48 h, plate-adjusted (DMSO control set to 6) (ln(EXT), control-adjusted); higher = larger nematodes / less growth inhibition
Method in brief: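 Synchronised C. elegans N2 L1 larvae were grown for 48 h at 20°C in K-medium containing killed OP50, 1% DMSO and 0.5–200 µM chemical, at 50 per well and 4–6 wells per treatment. The Biosort recorded extinction for each worm, and a growth model removed debris. Worm size was obtained by natural-logging these values and averaging them per well. For plate adjustment, the vehicle control mean was subtracted and 6 was added.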

[2] = tested on: Caenorhabditis elegans N2; assay: lowest effective concentration for larval growth inhibition (size below effect threshold); higher = less potent
Method in brief: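 C. elegans N2 L1 larvae (50 per 96-well) were grown 48 h at 20°C in K-medium with killed bacteria, 1% DMSO and 0.5, 1, 5, 10, 50, 100 or 200 µM chemical. The Biosort measured per-worm extinction as size, and these were log-transformed into well means. The lowest effective concentration is the first dose where the plate-adjusted mean size drops under the 5.665 threshold and stays under it at higher doses.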

[3] = tested on: Caenorhabditis elegans N2; assay: AC50 for larval growth inhibition (Hill fit); higher = less potent
Method in brief: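 Synchronised C. elegans N2 L1 larvae, 50 per well in 96-well plates, were grown at 20°C for 48 h in K-medium with killed OP50, 1% DMSO and 0.5–200 µM chemical. Worm size was read on a COPAS Biosort as extinction, log-transformed and averaged per well, and only wells holding at least 10 worms were kept. AC50 was obtained by a constrained Hill fit using weighted genetic-algorithm regression, with out-of-range values censored.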

| Structure (SMILES) | mean nematode size ln(EXT) (ln) ([1]; 0.5 µM) | mean nematode size ln(EXT) (ln) ([1]; 1 µM) | mean nematode size ln(EXT) (ln) ([1]; 5 µM) | mean nematode size ln(EXT) (ln) ([1]; 10 µM) | mean nematode size ln(EXT) (ln) ([1]; 50 µM) | mean nematode size ln(EXT) (ln) ([1]; 100 µM) | mean nematode size ln(EXT) (ln) ([1]; 200 µM) | lowest effective concentration [2] [µM] | AC50 for larval growth inhibition [3] [µM] |
| --- | --- | --- | --- | --- | --- | --- | --- | --- | --- |
| CCCCNC(=O)n1c(NC(=O)OC)nc2ccccc21 [Benomyl] | 6.03 | 6.07 | 5.68 | 5.58 | 5.36 | 5.4 | 4.35 | 10 | > 200 |
| CCNS(=O)(=O)C(F)(F)C(F)(F)C(F)(F)C(F)(F)C(F)(F)C(F)(F)C(F)(F)C(F)(F)F [Sulfluramid] | 5.81 | 5.84 | 5.48 | 5.23 | 4.32 | 4.08 | 3.24 | 5 | 31.4 |
| O=[N+]([O-])C(Br)(CO)CO [Bronopol] | 5.88 | 5.93 | 5.93 | 5.84 | 5.65 | 5.56 | 4.95 | 50 | > 200 |
| CC(C)(C)[C@H](O)[C@H](Cc1ccc(Cl)cc1)n1cncn1 (racemic) [Paclobutrazol] | 5.57 | 5.77 | 5.8 | 5.97 | 5.33 | 5.58 | 4.63 | 50 | > 200 |
| Nc1ccc(Cc2ccc(N)cc2)cc1 [4,4'-Methylenedianiline] | 5.98 | 5.73 | 5.91 | 5.78 | 5.87 | 5.92 | 5.53 | 200 | > 200 |
| c1ccc2c(c1)-c1cccc3cccc-2c13 [Fluoranthene] | 5.79 | 5.87 | 5.65 | 5.05 | 4.05 | 3.8 | 4.82 | 5 | 9.33 |
| CCCC1COC(Cn2cncn2)(c2ccc(Cl)cc2Cl)O1 (stereo not drawn) [Propiconazole] | 6.02 | 6.09 | 6.16 | 6.21 | 5.95 | 5.93 | 5.05 | 200 | > 200 |
| O=C(O)c1cccc(C(=O)O)c1 [Isophthalic acid] | 5.93 | 5.83 | 5.85 | 5.87 | 5.8 | 5.82 | 4.8 | 200 | > 200 |
| N=C(N)c1ccc(OCCCCCOc2ccc(C(=N)N)cc2)cc1 [Pentamidine isethionate salt] | 6.04 | 6.06 | 6 | 5.89 | 5.44 | 5.05 | 4.25 | 50 | 149 |
| CCCCOCN(C(=O)CCl)c1c(CC)cccc1CC [Butachlor] | 5.93 | 6.1 | 6.07 | 6.12 | 6.05 | 6.08 | 5.44 | 200 | 13.8 |
| CCOP(=S)(OCC)Oc1nc(Cl)c(Cl)cc1Cl [Chlorpyrifos] | 5.55 | 5.06 | 4.29 | 3.42 | 3.29 | 3.43 | 3.06 | ≤ 0.5 | 2.28 |
| c1ccc2c(c1)-c1cccc3c1c-2cc1ccccc13 [Benzo[b]fluoranthene] | 5.22 | 4.39 | 4.09 | 4.15 | 4.17 | 5.53 | 4.32 | ≤ 0.5 | < 0.5 |
| CC(C)(OOC(C)(C)c1ccccc1)c1ccccc1 [Dicumyl peroxide’-(Dioxydipropane-2,2-diyl)dibenzene)] | 5.83 | 5.8 | 5.83 | 5.82 | 5.62 | 5.38 | 5.45 | 50 | > 200 |
| CO/N=C(/C(=O)OC)c1ccccc1CO/N=C(\C)c1cccc(C(F)(F)F)c1 [Trifloxystrobin] | 5.88 | 5.87 | 5.71 | 5.82 | 5.92 | 4.16 | 3.43 | 100 | 90.8 |
| CC(C)(c1ccccc1)c1ccc(O)cc1 [4-Cumylphenol] | 6.04 | 5.96 | 5.97 | 5.84 | 5.92 | 5.3 | 4.34 | 100 | 110 |
| Nc1nc(N)c2nc(CNc3ccc(C(=O)NC(CCC(=O)O)C(=O)O)cc3)cnc2n1 (stereo not drawn) [Aminofolic acid, 4-] | 5.89 | 5.91 | 5.86 | 5.86 | 5.82 | 5.82 | 5.39 | 200 | > 200 |
| OC(c1ccc(Cl)cc1)(c1cncnc1)c1ccccc1Cl (stereo not drawn) [Fenarimol] | 6.14 | 6.17 | 6.07 | 5.92 | 5.21 | 3.58 | 3.32 | 50 | 59.8 |
| O=c1[nH]cc(F)c(=O)[nH]1 [5-Fluorouracil] | 5.8 | 5.84 | 5.91 | 5.82 | 5.63 | 5.3 | 4.19 | 50 | 162 |
| c1ccc(-c2ccccc2)cc1 [Biphenyl] | 5.85 | 5.87 | 5.9 | 5.96 | 5.92 | 5.74 | 3.88 | 200 | 164 |
| O=C1O[C@H]([C@@H](O)CO)C([O-])=C1O.[Na+] [(+)-Sodium L-ascorbate] | 5.84 | 5.88 | 5.78 | 5.85 | 5.29 | 5.05 | 3.96 | 50 | 132 |
| CCOC(=O)C(C)(C)Oc1ccc(Cl)cc1 [Clofibrate] | 6.01 | 5.8 | 5.86 | 5.81 | 5.75 | 5.78 | 5.54 | 200 | > 200 |
| CCCCCCCCCCCO [1-Undecanol] | 5.77 | 6.01 | 5.84 | 5.7 | 3.79 | 3.74 | 4.93 | 50 | 18.4 |
